Test results published in ChEMBL document CHEMBL3797052 (Eur J Med Chem, 2016).

Test system: A498
Experiment: Antiproliferative activity against human A498 cells assessed as growth inhibition after 48 hrs by sulforhodamine B assay
Type: functional
Conditions: A498, 48 h
`CNC(=O)c1cc(Oc2ccc3nc(NC(=O)Nc4cc(C(F)(F)F)cc(C(F)(F)F)c4)sc3c2)ccn1` gave a GI50 of 1.02 µM, an LC50 (concentration killing 50% of cells) of 5.97 µM and a TGI of 2.47 µM.

Test system: K562
Experiment: Antiproliferative activity against human K562 cells assessed as cell growth at 10^-7 M after 48 hrs by sulforhodamine B assay
Type: functional
Conditions: K562, 48 h, read-out: Activity
Work on `CNC(=O)c1cc(Oc2ccc3nc(NC(=O)Nc4cc(C(F)(F)F)cc(C(F)(F)F)c4)sc3c2)ccn1` yielded a growth at 0.1 µM of 97%.

Test system: EKVX
Experiment: Antiproliferative activity against human EKVX cells assessed as cell growth at 10^-7 M after 48 hrs by sulforhodamine B assay
Type: functional
Conditions: read-out: Activity
In the case of `CNC(=O)c1cc(Oc2ccc3nc(NC(=O)Nc4cc(C(F)(F)F)cc(C(F)(F)F)c4)sc3c2)ccn1`, the growth at 0.1 µM is reported as 92%.

Test system: U-251
Experiment: Antiproliferative activity against human U251 cells assessed as cell growth at 10^-7 M after 48 hrs by sulforhodamine B assay
Type: functional
Conditions: U-251, 48 h, read-out: Activity
In the case of `CNC(=O)c1cc(Oc2ccc3nc(NC(=O)Nc4cc(C(F)(F)F)cc(C(F)(F)F)c4)sc3c2)ccn1`, the growth at 0.1 µM is reported as 106%.

Test system: CCRF-CEM
Experiment: Antiproliferative activity against human CCRF-CEM cells assessed as cell growth at 10^-5 M after 48 hrs by sulforhodamine B assay
Type: functional
Conditions: read-out: Activity
`CNC(=O)c1cc(Oc2ccc3nc(NC(=O)Nc4cc(C(F)(F)F)cc(C(F)(F)F)c4)sc3c2)ccn1` gave a growth at 10 µM of -16%.

Test system: SR
Experiment: Antiproliferative activity against human SR cells assessed as cell growth at 10^-5 M after 48 hrs by sulforhodamine B assay
Type: functional
Conditions: read-out: Activity
Compound `CNC(=O)c1cc(Oc2ccc3nc(NC(=O)Nc4cc(C(F)(F)F)cc(C(F)(F)F)c4)sc3c2)ccn1` has a growth at 10 µM of -47%.

Test system: A549
Experiment: Antiproliferative activity against human A549/ATCC cells assessed as cell growth at 10^-5 M after 48 hrs by sulforhodamine B assay
Type: functional
Conditions: A549, 48 h, read-out: Activity
Work on `CNC(=O)c1cc(Oc2ccc3nc(NC(=O)Nc4cc(C(F)(F)F)cc(C(F)(F)F)c4)sc3c2)ccn1` yielded a growth at 10 µM of -91%.

Test system: EKVX
Experiment: Antiproliferative activity against human EKVX cells assessed as cell growth at 10^-5 M after 48 hrs by sulforhodamine B assay
Type: functional
Conditions: read-out: Activity
With `CNC(=O)c1cc(Oc2ccc3nc(NC(=O)Nc4cc(C(F)(F)F)cc(C(F)(F)F)c4)sc3c2)ccn1` the growth at 10 µM was -31%.

Test system: NCI-H226
Experiment: Antiproliferative activity against human NCI-H226 cells assessed as cell growth at 10^-5 M after 48 hrs by sulforhodamine B assay
Type: functional
Conditions: NCI-H226, 48 h, read-out: Activity
In the case of `CNC(=O)c1cc(Oc2ccc3nc(NC(=O)Nc4cc(C(F)(F)F)cc(C(F)(F)F)c4)sc3c2)ccn1`, the growth at 10 µM is reported as -57%.

Test system: NCI-H23
Experiment: Antiproliferative activity against human NCI-H23 cells assessed as cell growth at 10^-5 M after 48 hrs by sulforhodamine B assay
Type: functional
Conditions: NCI-H23, 48 h, read-out: Activity
Work on `CNC(=O)c1cc(Oc2ccc3nc(NC(=O)Nc4cc(C(F)(F)F)cc(C(F)(F)F)c4)sc3c2)ccn1` yielded a growth at 10 µM of -59%.

Test system: NCI-H460
Experiment: Antiproliferative activity against human NCI-H460 cells assessed as cell growth at 10^-5 M after 48 hrs by sulforhodamine B assay
Type: functional
Conditions: NCI-H460, 48 h, read-out: Activity
In the case of `CNC(=O)c1cc(Oc2ccc3nc(NC(=O)Nc4cc(C(F)(F)F)cc(C(F)(F)F)c4)sc3c2)ccn1`, the growth at 10 µM is reported as -75%.

Test system: not listed separately
Experiment: Antiproliferative activity against human SF295 cells assessed as cell growth at 10^-5 M after 48 hrs by sulforhodamine B assay
Type: functional
Conditions: SF-295, 48 h, read-out: Activity
For `CNC(=O)c1cc(Oc2ccc3nc(NC(=O)Nc4cc(C(F)(F)F)cc(C(F)(F)F)c4)sc3c2)ccn1`, the growth at 10 µM was -89%.

Test system: not listed separately
Experiment: Antiproliferative activity against human SNB75 cells assessed as cell growth at 10^-5 M after 48 hrs by sulforhodamine B assay
Type: functional
Conditions: SNB-75, 48 h, read-out: Activity
Work on `CNC(=O)c1cc(Oc2ccc3nc(NC(=O)Nc4cc(C(F)(F)F)cc(C(F)(F)F)c4)sc3c2)ccn1` yielded a growth at 10 µM of -66%.

Test system: U-251
Experiment: Antiproliferative activity against human U251 cells assessed as cell growth at 10^-5 M after 48 hrs by sulforhodamine B assay
Type: functional
Conditions: U-251, 48 h, read-out: Activity
For `CNC(=O)c1cc(Oc2ccc3nc(NC(=O)Nc4cc(C(F)(F)F)cc(C(F)(F)F)c4)sc3c2)ccn1`, the growth at 10 µM was -98%.

Test system: not listed separately
Experiment: Antiproliferative activity against human SKOV3 cells assessed as cell growth at 10^-7 M after 48 hrs by sulforhodamine B assay
Type: functional
Conditions: SK-OV-3, 48 h, read-out: Activity
Compound `CNC(=O)c1cc(Oc2ccc3nc(NC(=O)Nc4cc(C(F)(F)F)cc(C(F)(F)F)c4)sc3c2)ccn1` has a growth at 0.1 µM of 99%.

Test system: M14
Experiment: Antiproliferative activity against human M14 cells assessed as cell growth at 10^-5 M after 48 hrs by sulforhodamine B assay
Type: functional
Conditions: M14, 48 h, read-out: Activity
In the case of `CNC(=O)c1cc(Oc2ccc3nc(NC(=O)Nc4cc(C(F)(F)F)cc(C(F)(F)F)c4)sc3c2)ccn1`, the growth at 10 µM is reported as -74%.

Test system: SK-MEL-5
Experiment: Antiproliferative activity against human SK-MEL-5 cells assessed as cell growth at 10^-5 M after 48 hrs by sulforhodamine B assay
Type: functional
Conditions: SK-MEL-5, 48 h, read-out: Activity
For `CNC(=O)c1cc(Oc2ccc3nc(NC(=O)Nc4cc(C(F)(F)F)cc(C(F)(F)F)c4)sc3c2)ccn1`, the growth at 10 µM was -76%.

Test system: not listed separately
Experiment: Antiproliferative activity against human UACC257 cells assessed as cell growth at 10^-5 M after 48 hrs by sulforhodamine B assay
Type: functional
Conditions: UACC-257, 48 h, read-out: Activity
`CNC(=O)c1cc(Oc2ccc3nc(NC(=O)Nc4cc(C(F)(F)F)cc(C(F)(F)F)c4)sc3c2)ccn1` showed a growth at 10 µM of -82%.
